Measurements taken from patent US8552050B2, “Activators of pyruvate kinase M2 and methods of treating disease” (Beth Israel Deaconess Medical Center, priority 2007, dated 2013).
Square brackets hold non-standard residues; d marks the D form. Ends that are not written are not given here. pY = N[C@@H](Cc1ccc(OP(=O)(O)O)cc1)C(=O)O

Experiments:
[1] = target: T1, PKM2 (Homo sapiens, UniProt P14618); assay: Recombinant PKM2 activity with P-M2tide / NP-M2tide, LDH-coupled assay; assay type: biochemical; design: His6 (N); made in house; host or cells: E. coli BL21(DE3)pLysS; conditions: dose-dependent; FIG. 6a
From the text: Multiple phosphoTyr peptides comprising in vivo phosphorylation sites previously identified on metabolic proteins (Villen et al., Proc. Natl. Acad. Sci. USA 104: 1488-93, 2007) were synthesized. Several of these phosphoTyr peptides, as well as multiple phosphoTyr peptides designed after known tyrosine kinase motifs, were also shown to inhibit PKM2 activity (FIG. 6b).
Target sequence in this assay (P14618 whole entry): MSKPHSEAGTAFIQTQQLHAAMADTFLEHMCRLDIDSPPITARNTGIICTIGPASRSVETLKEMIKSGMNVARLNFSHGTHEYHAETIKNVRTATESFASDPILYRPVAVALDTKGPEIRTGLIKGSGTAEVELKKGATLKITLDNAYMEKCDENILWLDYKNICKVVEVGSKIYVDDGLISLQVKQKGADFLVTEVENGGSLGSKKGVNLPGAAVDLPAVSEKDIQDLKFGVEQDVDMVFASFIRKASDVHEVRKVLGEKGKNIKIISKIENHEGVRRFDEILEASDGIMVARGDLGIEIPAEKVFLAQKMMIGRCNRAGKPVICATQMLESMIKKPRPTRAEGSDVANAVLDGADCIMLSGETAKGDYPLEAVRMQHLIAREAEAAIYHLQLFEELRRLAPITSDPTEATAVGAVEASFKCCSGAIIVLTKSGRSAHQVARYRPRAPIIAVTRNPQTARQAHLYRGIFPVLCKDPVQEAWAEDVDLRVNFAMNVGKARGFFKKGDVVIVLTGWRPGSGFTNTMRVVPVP

[2] = target: T1, PKM2; assay: Release of 14C-FBP from FBP-loaded recombinant PKM2 after peptide exposure and dialysis; assay type: binding; design: His6 (N); made in house; host or cells: E. coli BL21(DE3)pLysS; conditions: 14C counts retained after dialysis; FIG. 4e
Experimental: To examine the effect of phosphoTyr peptide binding on FBP-bound PKM2, a peptide-binding motif for PKM2 was obtained using traditional peptide library screening. Both the phosphorylated (P-M2tide) and unphosphorylated (NP-M2tide) versions of the optimal peptide were synthesized: P-M2tide (GGAVDDDpYAQFANGG SEQ ID NO:1) and NP-M2tide (GGAVDDDYAQFANGG SEQ ID NO:2) (FIG. 5). The FBP-loaded recombinant PKM2 was incubated with P-M2tide or NP-M2tide, the unbound FBP and peptide were dialyzed away, and the counts retained on the PKM2 were measured.
Target sequence in this assay (P14618 whole entry): as above

[3] = tested on: M1 and M2 rescue cells; assay: Proliferation of M1 and M2 rescue cells with oligomycin; assay type: cell-based, human; conditions: subsaturating oligomycin (125 nM); M1 vs M2 rescue cells
Experimental: To examine whether PKM2 expression enhances tumor cell growth under lowered oxygen and glucose conditions, proliferation rates of the M1 and M2 rescue cells (M2 knockdown cells expressing mM1 or mM2) were measured in physiologic glucose levels and hypoxic oxygen. […] The percent decrease in oxygen consumption following addition of subsaturating amounts of oligomycin, a specific inhibitor of mitochondrial ATP synthase, was the same in both the M1 and M2 cells.
5×10^4 cells were seeded in triplicate in 6-well plates and accurate cell counts were obtained every 24 hours using a Coulter particle analyzer for a 3-5 day period. Time zero was taken 16 hours post-seeding. Cells grown in low oxygen were incubated in a sealed hypoxia chamber set to 0.5% oxygen. Cells grown in the presence of oligomycin were treated with 125 nM oligomycin at time zero.

[4] = target: T1, PKM2; conditions: Yamada and Noguchi 1999; cited from earlier work
Target sequence in this assay (P14618 whole entry, species assumed): as the sequence (P14618 whole entry) above

[5] = target: T1, PKM2; assay: PKM2 activator assay, LDH-coupled, no FBP added; assay type: biochemical
Experimental: (§1) For the activator assays, a candidate compound (2 μl 100×) was added into a well. In a control well, 2 μl of DMSO was added in place of the candidate compound. […] The mixture incubated at room temperature for 5 minutes. Immediately prior to measurement readings, 10 μl PEP (0.5 mM) were added to each well. No FBP was added.
Target sequence in this assay (P14618 whole entry): as above

[6] = target: T1, PKM2; assay: FBP competition for binding of recombinant PKM2 to phosphoTyr peptide affinity matrix; design: His6 (N); made in house; host or cells: E. coli BL21(DE3)pLysS; conditions: FIG. 2b
Experimental: To determine if the FBP binding pocket on PKM2 coordinates phosphoTyr peptide binding, it was assessed whether FBP could compete for binding of PKM2 to a phosphoTyr peptide library column. Recombinant protein was synthesized by cloning human PKM2 into a pET28a vector (Novagen) at NdeI and BamHI sites and PKM2 was expressed as a N-terminal His6 tag fusion protein. The protein was expressed and purified with a standard protocol. Briefly, pET28a-PKM2 was transformed into BL2 I (DE3)pLysS cells and grown to an OD600 of 0.8 and induced with 0.5 mM IPTG for seven hours at room temperature. Cells were lysed using lysozyme in lysis buffer (50 mM Tris, pH 8.0, 10 mM MgCl2, 200 mM NaCl, 100 mM KCl, 20% glycerol, 10 mM imidazole, 1 mM PMSF). The cell lysate was cleared by centrifugation. PKM2 was purified by batch binding to Ni—NTA resin (Qiagen). The resin was then washed with lysis buffer containing 30 mM imidazole for 200 column volumes, and His6-tag-PKM2 was eluted with 250 mM imidazole. The protein was dialyzed overnight at 4° C. to remove the imidazole.
Recombinant PKM2 was incubated with increasing amounts of FBP and then flowed over the phosphoTyr peptide affinity matrix. 20 μM FBP was able to compete for binding of recombinant PKM2 to phosphoTyr peptides (FIG. 2b). […]
Target sequence in this assay (P14618 whole entry): as above

[7] = target: T1, PKM2; assay: 14C-FBP retention on protein after dialysis, scintillation counting; assay type: binding; design: His6 (N); made in house; host or cells: E. coli BL21(DE3)pLysS
Experimental: (§2) However, FBP concentrations following protein purification would be orders of magnitude lower than this value. […] The PKM1, PKM2, and no-protein control were incubated with ^14C-FBP for 30 minutes at room temperature and then […] dialyzed against >2 L of buffer using 10,000 MWCO dialysis cassettes (Pierce) for at least 7 hours. After dialysis, samples were recovered and the amount of ^14C-FBP retained in each dialysis cassette was determined by scintillation counting. […] Upon further analysis, it was estimated that ^14C FBP is retained at roughly half a mole per mole on the PKM2 protein.
Target sequence in this assay (P14618 whole entry): as above

[8] = target: T2, recombinant PKM1 (Homo sapiens, UniProt P14618); assay: as above; assay type: binding; conditions: ~10 μM 14C-FBP, 1 μM protein
T2 construct: made in house
T2 sequence (P14618 1-531 isoform P14618-2, species assumed): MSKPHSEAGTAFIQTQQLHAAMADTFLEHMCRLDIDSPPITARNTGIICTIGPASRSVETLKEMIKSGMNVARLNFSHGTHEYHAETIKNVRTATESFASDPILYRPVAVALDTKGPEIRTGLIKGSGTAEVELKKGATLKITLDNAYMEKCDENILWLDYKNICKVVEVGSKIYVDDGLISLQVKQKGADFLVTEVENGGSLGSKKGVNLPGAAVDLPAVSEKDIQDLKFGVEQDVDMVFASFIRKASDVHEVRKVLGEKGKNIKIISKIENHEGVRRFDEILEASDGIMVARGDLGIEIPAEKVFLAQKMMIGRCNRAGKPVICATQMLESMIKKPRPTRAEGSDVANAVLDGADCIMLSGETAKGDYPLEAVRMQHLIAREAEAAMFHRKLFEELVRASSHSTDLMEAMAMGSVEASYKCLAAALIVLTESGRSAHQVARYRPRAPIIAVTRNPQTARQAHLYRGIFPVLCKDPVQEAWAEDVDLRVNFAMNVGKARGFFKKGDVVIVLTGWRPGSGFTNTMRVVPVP
Experimental: as §2

[9] = target: T1, PKM2; assay: PKM2 inhibition assay, LDH-coupled, FBP added in excess; assay type: biochemical; conditions: read-out: Inhibition of PKM2 Activity
Experimental: as §1, with “the inhibition” for “the activator”, “for 30” for “for 5”, “mM) and 2 μl FBP/H2O (0.5 μM)” for “mM)”, “well. The” for “well. No”, “was added in excess.” for “was added.”
Target sequence in this assay (P14618 whole entry): as the sequence (P14618 whole entry) above

[10] = tested on: PKM2-expressing cells; assay: Cellular oxygen consumption after acute pervanadate stimulation; assay type: cell-based
Experimental: (§3) Consistent with this model, a 25% increase in the incorporation of metabolites from ^14C-glucose into lipids upon pervanadate-treatment of PKM2-expressing cells was observed. […] A similar increase in the incorporation of ^14C-glucose metabolites into lipids was observed upon pervanadate stimulation of 293 cells.
Cellular oxygen consumption rates were measured using a water-jacketed (37° C.) anaerobic chamber fitted with a polarographic oxygen electrode as described previously (Vander Heiden et al, Mol Cell Biol 21: 5899-912, 2001). The electrode was calibrated with 150 mM NaCl equilibrated to room air at 37° C. (corresponding to 199 nmol O2/ml).

[11] = tested on: pyruvate kinase; conditions: pervanadate stimulation
Experimental: Pyruvate kinase activity was measured according to published methods by a continuous assay coupled to lactate dehydrogenase (LDH). The change in absorbance at 340 nm due to oxidation of NADH was measured using a Victor^3 1420 Multilabel Counter spectrophotometer (PerkinElmer, Inc.). Kinetic assays for activity determinations contained recombinant PK (20-100 ng) or cell lysate (1-2 μg), Tris (pH 7.5) (50 mM), KCl (100 mM), MgCl2 (5 mM), ADP (0.6 mM), PEP (0.5 mM), NADH (180 pM), FBP (10 pM), and LDH (8 units).

[12] = target: T3, Flag-tagged PKM2 (Mus musculus, UniProt P52480); assay: 3H bound to immunoprecipitated Flag-tagged PKM2 in cells cultured with 3H-glucose; assay type: cell-based; conditions: 15-minute treatment with pervanadate
T3 construct: expressed in transfected cells
T3 sequence (P52480 whole entry): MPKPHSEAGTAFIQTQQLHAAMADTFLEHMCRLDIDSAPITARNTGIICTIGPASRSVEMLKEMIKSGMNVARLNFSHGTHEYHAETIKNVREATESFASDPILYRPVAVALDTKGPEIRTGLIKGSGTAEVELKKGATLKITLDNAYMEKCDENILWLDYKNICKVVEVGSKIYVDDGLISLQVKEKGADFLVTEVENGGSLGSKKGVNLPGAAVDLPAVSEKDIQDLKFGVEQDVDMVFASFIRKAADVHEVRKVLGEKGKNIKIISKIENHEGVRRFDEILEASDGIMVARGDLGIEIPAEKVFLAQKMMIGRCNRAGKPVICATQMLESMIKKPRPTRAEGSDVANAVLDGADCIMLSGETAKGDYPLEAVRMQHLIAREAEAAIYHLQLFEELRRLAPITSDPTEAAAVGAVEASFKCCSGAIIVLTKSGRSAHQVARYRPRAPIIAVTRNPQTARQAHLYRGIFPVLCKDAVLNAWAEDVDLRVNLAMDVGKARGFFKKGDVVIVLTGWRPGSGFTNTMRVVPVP
Experimental: Next, the ability of phosphoTyr protein binding to catalyze the release of FBP from PKM2 in vivo was tested. To address this, cells were cultured overnight with ^3H-glucose that can be metabolized to ^3H-FBP. Flag-tagged PKM2 was immunoprecipitated and the amount of ^3H bound to PKM2 with and without pervanadate-treatment was determined by scintillation counting.

[13] = tested on: PKM2-expressing cells; assay: Incorporation of metabolites from 14C-glucose into lipids; assay type: cell-based
From the text: as §3

GGAVDDDpYAQFANGG (GGAVDDD[pY]AQFANGG) [P-M2tide]
inhibition of PKM2 activity [1]: 20-30%
FBP retained on / released from PKM2 [2]: release of the majority of the FBP

CC[C@H]1/C=C/C=C/C[C@@H](C)[C@H](O)[C@@](C)(O)C(=O)[C@@H](C)[C@H](O)[C@@H](C)C(=O)[C@@H](C)[C@H](O)[C@@H](C)/C=C/C(=O)O[C@@H]2[C@H](C)[C@H](CC1)O[C@]1(CC[C@H](C)[C@H](C[C@@H](C)O)O1)[C@H]2C [oligomycin]
effect on proliferation rate [3]: affected the proliferation rate of the M1 cells significantly more than the M2 cells

GGAVDDDYAQFANGG [NP-M2tide]
FBP retained on / released from PKM2 [2]: significant amount of FBP remaining bound to PKM2

O=C(COP(=O)(O)O)[C@@H](O)[C@H](O)[C@H](O)COP(=O)(O)O [FBP, fructose-1,6-bisphosphate]
Ka values for FBP binding to PKM2 [4]: micromolar range
% Activation of PKM2 by FBP ([5]; 0.1 μM FBP): 62%
% Activation of PKM2 by FBP ([5]; 0.3 μM FBP): 89%
% Activation of PKM2 by FBP ([5]; 1 μM FBP): 114%
FBP concentration able to compete for binding of recombinant PKM2 to phosphoTyr peptides [6]: 20 µM
14C FBP retained on the PKM2 protein ([7]; estimated upon further analysis): roughly half
more 14C counts than PKM1 sample and no-protein control ([7]; ~10 μM 14C-FBP, 1 μM protein, after dialysis): 52±5%
14C counts retained in PKM1 sample [8]: same amount of ^14C counts as the no-protein control sample

Cc1ccc(C)n1-c1ccc(O)c(C(=O)O)c1
inhibition at 10 µM ([9]; 0.01 mM compound): 21%
inhibition at 100 µM ([9]; 0.1 mM compound): 36%
inhibition at 1000 µM ([9]; 1 mM compound): 55%

pervanadate
decrease in oxygen consumption ([10]; M2KE-expressing cells): 15±4%
decrease in oxygen consumption ([10]; PKM2-expressing cells): 36±1%
decrease in total pyruvate kinase activity ([11]; 293, A549 and H1299 cells, FIG. 6c): 20-30%
pyruvate kinase activity in M1-, M2-, M2KE-, L-expressing knockdown cells ([11]; H1299 knockdown/rescue cells, FIG. 6g): specific inhibition of pyruvate kinase activity only in the wild-type M2-expressing cells
reduction in 3H that immunoprecipitated with PKM2 [12]: 30±13%
increase in the incorporation of metabolites from 14C-glucose into lipids ([13]; PKM2-expressing cells): 25%
14C incorporation into lipids ([13]; cells expressing the KE point mutant of PKM2): no significant increase
